Measured values as given in BindingDB's records for doi:10.1021/jm000048n (Washington State University, 2000).

What was measured:
[1] = molecular target: Cytochrome P450 2C9 (Homo sapiens, UniProt P11712); experiment: (§1) Binding affinity was measured on Cytochrome P450 2C9
[2] = molecular target: {'v': 'CYP2C9', 'o': 'p', 'q': 'Cytochrome P450 2C9 (single_protein)'} (Homo sapiens, UniProt P11712); experiment: as §1

Ki [1]: 0.5 µM | Ki [2]: 0.5 µM
Structure (SMILES): CC[C@H](c1ccccc1)c1c(O)c2ccccc2oc1=O
